The conditions of this data set: rcm bond, Grubbs II, DCM, 40.0 °C.

Read-outs that look alike come from different tables or passages of the source.

`COC(=O)Nc1ccc2c(c1)NC(=O)[C@H](C)/C=C/C[C@H](NC(=O)OC(C)(C)C)c1nc-2cn1COCC[Si](C)(C)C` came in with a ring closure, yield of all isomers (from C=CC[C@H](NC(=O)OC(C)(C)C)c1nc(-c2ccc(NC(=O)OC)cc2NC(=O)[C@H](C)C=C)cn1COCC[Si](C)(C)C, 9.73 mM, 21.5 h) of 74%.

Compound `COC(=O)Nc1ccc2c(c1)NC(=O)[C@H](C)/C=C/C[C@H](NC(=O)OC(C)(C)C)c1cc-2ccn1` registered a ring closure, yield of all isomers (from C=CC[C@H](NC(=O)OC(C)(C)C)c1cc(-c2ccc(NC(=O)OC)cc2NC(=O)[C@H](C)C=C)ccn1, 11.76 mM, 4.0 h) of 71.2%.

Take `C[C@@H]1/C=C/C[C@H](NC(=O)OC(C)(C)C)c2cn(COCC[Si](C)(C)C)c(n2)-c2ccc([N+](=O)[O-])cc2NC1=O`: the ring closure, yield of all isomers (from C=CC[C@H](NC(=O)OC(C)(C)C)c1cn(COCC[Si](C)(C)C)c(-c2ccc([N+](=O)[O-])cc2NC(=O)[C@H](C)C=C)n1, 1.016 mM) is 55.9%.
